Measured values reported in patent publication US20250360185A1, “COMPOSITIONS COMPRISING PEDF-DERIVED SHORT PEPTIDES FOR THE TREATMENT OF DRY EYE DISEASES” (BRIM Biotechnology, Inc., priority 2022, published 2025).
“Also recorded” adds a separate entry of the source.

Experiments:
Type in all cases: in vivo, human
subjects with DED [1] = assay: Visual analog scale (VAS) ocular symptom ratings, clinical study with CAE model; conditions: for VAS Burning/Stinging Change from Baseline, ANCOVA LS Mean Difference (SE), BRM421 OS − Placebo / VAS Burning/Stinging Change from Baseline, Two-Sample t-test Sample Mean Difference (SE), BRM421 OS − Placebo / VAS Eye Dryness Change from Baseline, ANCOVA LS Mean Difference (SE), BRM421 OS − Placebo / VAS Eye Dryness Change from Baseline, Two-Sample t-test Sample Mean Difference (SE), BRM421 OS − Placebo / VAS Photophobia Change from Baseline, ANCOVA LS Mean Difference (SE), BRM421 OS − Placebo / VAS Photophobia Change from Baseline, Two-Sample t-test Sample Mean Difference (SE), BRM421 OS − Placebo / VAS Burning/Stinging Change from Baseline, ANCOVA LS Mean (SE) / VAS Eye Dryness Change from Baseline, ANCOVA LS Mean (SE) / VAS Photophobia Change from Baseline, ANCOVA LS Mean (SE) / VAS Burning/Stinging Change from Baseline, Mean (SD) / VAS Eye Dryness Change from Baseline, Mean (SD) / VAS Photophobia Change from Baseline, Mean (SD): ITT; for VAS Burning/Stinging Change from Baseline, ANCOVA LS Mean (SE) / VAS Eye Dryness Change from Baseline, ANCOVA LS Mean (SE) / VAS Photophobia Change from Baseline, ANCOVA LS Mean (SE) / VAS Burning/Stinging Change from Baseline, Mean (SD) / VAS Eye Dryness Change from Baseline, Mean (SD) / VAS Photophobia Change from Baseline, Mean (SD): baseline last Pre-CAE measure; for VAS Burning/Stinging Change from Baseline, Mean (SD) / VAS Eye Dryness Change from Baseline, Mean (SD) / VAS Photophobia Change from Baseline, Mean (SD): 0-100 mm line
Experimental: (§1) A multi-center, randomized, double masked, placebo controlled clinical study was conducted to assess the safety and efficacy of BRM421 ophthalmic solution (OS) in subjects with DED using a controlled adverse environment (CAE®) model (Ora, Inc., Andover, MA, USA). CAE® uses controlled ocular surface stress to exacerbate the signs and symptoms of DED in a safe and controllable manner.
(§2) During the first visit (Day-7±1), the subjects were screened, evaluated before CAE®, exposed to CAE®, evaluated after CAE®, and started with the placebo run-in period (7±1 days). During the 7-day study run-in period (for the purpose of subject selection) prior to randomization, all subjects received Placebo OS bilaterally, three times daily (TID). During the second visit, subjects were evaluated before CAE®, exposed to CAE®, and evaluated after CAE®. These evaluations formed the baseline measurements. The subjects were then randomized into two groups to receive either BRM421 ophthalmic solution (OS) or Placebo OS (Vehicle) bilaterally three times daily (TID) for 14 days from Visit 2 to Visit 4.
During these visits, subjects were evaluated for symptom efficacy. Specifically, visual analog scale (VAS) was measured by asking subjects to rate each ocular symptom due to ocular dryness. Symptoms assessed include burning/stinging, itching, foreign body sensation, blurred vision, eye dryness, photophobia, and pain.

subjects with DED [2] = assay: Ora Ocular Discomfort & 4-Symptom Questionnaire (ODS) diary, clinical study with CAE model; conditions: for Diary Dryness Change from Baseline, ANCOVA LS Mean (SE) / Diary Dryness Change from Baseline, Mean (SD) / Diary Burning Change from Baseline, ANCOVA LS Mean (SE) / Diary Ocular Discomfort Change from Baseline, ANCOVA LS Mean (SE) / Diary Burning Change from Baseline, Mean (SD) / Diary Ocular Discomfort Change from Baseline, Mean (SD): ITT observed data; for Diary Dryness Change from Baseline, Mean (SD) / Diary Burning Change from Baseline, Mean (SD) / Diary Ocular Discomfort Change from Baseline, Mean (SD): score 0 = None to 5 = Worst
Experimental: as §1, §2
Subjects were also asked to grade the severity of their dry eye disease symptoms in their diary in the morning and in the evening before instilling the study drug. The Ora Ocular Discomfort & 4-Symptom Questionnaire (ODS Questionnaire) was used, which included rating the severity of 5 symptoms: ocular discomfort, burning, dryness, grittiness, and stinging. Each symptom rating ranged from 0 to 5, where 0=None and 5=Worst.

subjects with DED [3] = assay: Corneal damage repair assessed with fluorescein staining, clinical study
Experimental: as §1, §2
Severe dry eye cases can lead to cornea damages, which can be assessed with fluorescein staining. PDSP of the invention can treat DED. In addition, these PDSP can also repair corneal damages. […] The selective efficacies of BRM421 treatment in cataract patients are unexpected.

[4] = Visit 3, post-CAE evaluations as baselines
[5] = Day 1 to Day 7, morning, pre-CAE baseline
[6] = Day 8 to 15, Evening, score 0-5
[7] = Day 8 to 15, Morning, score 0-5

## SLGAEQRTESIIHRALYYDLISSPDIHGT (listed as Homo sapiens) [BRM421, PEDF-derived short peptide, 29mer, residues 93-121; tested as BRM421 ophthalmic solution (OS)]
Subjects with DED [1]; DED and cataract, with or without cataract surgery
  VAS burning/stinging compared to placebo (FIG. 4C, FIG. 4D): significant improvements
Subjects with DED [1]; FIG. 4D versus FIG. 4C
  VAS burning/stinging, subjects with cataract surgery compared to subjects without cataract surgery: more improvements
Subjects with DED [1]; Visit 3 (Day 8)
  VAS Burning/Stinging Change from Baseline, ANCOVA LS Mean Difference (SE), BRM421 OS − Placebo: −6.8 (2.31) mm
  VAS Burning/Stinging Change from Baseline, Two-Sample t-test Sample Mean Difference (SE), BRM421 OS − Placebo: −5.9 (2.58) mm
  VAS Eye Dryness Change from Baseline, ANCOVA LS Mean Difference (SE), BRM421 OS − Placebo: −5.3 (2.33) mm
  VAS Eye Dryness Change from Baseline, Two-Sample t-test Sample Mean Difference (SE), BRM421 OS − Placebo: −4.7 (2.53) mm
  VAS Photophobia Change from Baseline, ANCOVA LS Mean Difference (SE), BRM421 OS − Placebo: −4.5 (2.19) mm
  VAS Photophobia Change from Baseline, Two-Sample t-test Sample Mean Difference (SE), BRM421 OS − Placebo: −4.2 (2.33) mm
  VAS Burning/Stinging Change from Baseline, ANCOVA LS Mean (SE): −9.8 (1.67) mm
  VAS Eye Dryness Change from Baseline, ANCOVA LS Mean (SE): −9.4 (1.69) mm
  VAS Photophobia Change from Baseline, ANCOVA LS Mean (SE): −6.2 (1.59) mm
  VAS Burning/Stinging Change from Baseline, Mean (SD): −8.8 (20.35) mm
  VAS Eye Dryness Change from Baseline, Mean (SD): −8.4 (19.22) mm
  VAS Photophobia Change from Baseline, Mean (SD): −5.6 (15.49) mm
Subjects with DED [1]; Visit 3, ITT Population, FIG. 2A
  Mean changes from baseline in burning/stinging, eye dryness and photophobia compared to placebo: significant difference
Subjects with DED [1]; [4]
  VAS burning/stinging relative to placebo (FIG. 2B): significant improvement
  VAS dryness relative to placebo (FIG. 2B): less significant improvement
Subjects with DED [1]; Visit 3, pre-CAE evaluations as baselines
  VAS dryness and VAS burning/stinging relative to placebo (FIG. 2B): significant improvements
Subjects with DED [1]; Visit 4 (Day 15)
  VAS Burning/Stinging Change from Baseline, ANCOVA LS Mean Difference (SE), BRM421 OS − Placebo: −3.8 (2.58) mm
  VAS Burning/Stinging Change from Baseline, Two-Sample t-test Sample Mean Difference (SE), BRM421 OS − Placebo: −2.9 (2.85) mm
  VAS Eye Dryness Change from Baseline, ANCOVA LS Mean Difference (SE), BRM421 OS − Placebo: 0.8 (2.66) mm
  VAS Eye Dryness Change from Baseline, Two-Sample t-test Sample Mean Difference (SE), BRM421 OS − Placebo: 1.2 (2.80) mm
  VAS Photophobia Change from Baseline, ANCOVA LS Mean Difference (SE), BRM421 OS − Placebo: −3.5 (2.26) mm
  VAS Photophobia Change from Baseline, Two-Sample t-test Sample Mean Difference (SE), BRM421 OS − Placebo: −3.2 (2.40) mm
  VAS Burning/Stinging Change from Baseline, ANCOVA LS Mean (SE): −10.0 (1.86) mm
  VAS Eye Dryness Change from Baseline, ANCOVA LS Mean (SE): −9.2 (1.92) mm
  VAS Photophobia Change from Baseline, ANCOVA LS Mean (SE): −7.8 (1.63) mm
  VAS Burning/Stinging Change from Baseline, Mean (SD): −9.0 (21.26) mm
  VAS Eye Dryness Change from Baseline, Mean (SD): −8.4 (21.48) mm
  VAS Photophobia Change from Baseline, Mean (SD): −7.3 (16.50) mm
Subjects with DED [1]; Visits 3 and 4 relative to Visit 2 pre-CAE baseline
  VAS dryness, burning/stinging and photophobia versus baseline (FIG. 2A): showed improvements over the baseline
Subjects with DED [1]; inferred from significant difference to placebo at Visit 3
  Onset of effects: relatively fast onset
Subjects with DED [1]; patients with both DED and cataract, pre-CAE and post-CAE evaluations
  VAS burning/stinging (FIG. 4B): very significant improvements
Subjects with DED [1]; patients with only DED (without cataract), pre-CAE or post-CAE evaluations
  VAS burning/stinging (FIG. 4A): no significant improvements
Subjects with DED [1]; subjects with cataract regardless of the surgery status, pre-CAE and post-CAE evaluations
  VAS dryness (FIG. 4G, FIG. 4H): significant improvements
Subjects with DED [1]; subjects with cataract, pre-CAE and post-CAE evaluations
  VAS dryness compared to placebo (FIG. 4F): significant improvements
Subjects with DED [1]; subjects without cataract, pre-CAE and post-CAE evaluations
  VAS dryness compared to placebo (FIG. 4E): did not show significant improvements
Subjects with DED [2]; Day 1 to 7, Evening, score 0-5
  Diary Dryness Change from Baseline, ANCOVA LS Mean (SE): −0.243 (0.0484)
  Diary Dryness Change from Baseline, ANCOVA LS Mean Difference (SE), BRM421 OS − Placebo: −0.145 (0.0671)
  Diary Dryness Change from Baseline, Two-Sample t-test Mean Difference (SE), BRM421 OS − Placebo: −0.140 (0.0673)
Subjects with DED [2]; Day 1 to 7, Evening
  Diary Dryness Change from Baseline, Mean (SD): −0.241 (0.5137)
Subjects with DED [2]; Day 1 to 7, Morning, score 0-5
  Diary Burning Change from Baseline, ANCOVA LS Mean (SE): −0.254 (0.0528)
  Diary Ocular Discomfort Change from Baseline, ANCOVA LS Mean (SE): −0.138 (0.0518)
  Diary Burning Change from Baseline, ANCOVA LS Mean Difference (SE), BRM421 OS − Placebo: −0.173 (0.0731)
  Diary Burning Change from Baseline, Two-Sample t-test Sample Mean Difference (SE), BRM421 OS − Placebo: −0.172 (0.0742)
  Diary Ocular Discomfort Change from Baseline, ANCOVA LS Mean Difference (SE), BRM421 OS − Placebo: −0.146 (0.0717)
  Diary Ocular Discomfort Change from Baseline, Two-Sample t-test Sample Mean Difference (SE), BRM421 OS − Placebo: −0.152 (0.0727)
Subjects with DED [2]; Day 1 to 7, Morning
  Diary Burning Change from Baseline, Mean (SD): −0.256 (0.5580)
  Diary Ocular Discomfort Change from Baseline, Mean (SD): −0.149 (0.5064)
Subjects with DED [2]; Day 1 to Day 7, evening
  Diary ocular discomfort and burning improvement from baseline compared to placebo: not significant in the evening
Subjects with DED [2]; Day 1 to Day 7, evening, pre-CAE baseline
  Diary dryness improvement from baseline compared to placebo (FIG. 3A): significantly better improvement
Subjects with DED [2]; [5]
  Diary dryness improvement from baseline compared to placebo (FIG. 3A): not significantly better in the morning
  Diary ocular discomfort and burning improvement from baseline compared to placebo: significantly better improvements
Subjects with DED [2]; [6]
  Diary Dryness Change from Baseline, ANCOVA LS Mean (SE): −0.377 (0.0651)
  Diary Dryness Change from Baseline, ANCOVA LS Mean Difference (SE), BRM421 OS − Placebo: −0.036 (0.0901)
  Diary Dryness Change from Baseline, Two-Sample t-test Sample Mean Difference (SE), BRM421 OS − Placebo: −0.029 (0.0915)
Subjects with DED [2]; Day 8 to 15, Evening
  Diary Dryness Change from Baseline, Mean (SD): −0.382 (0.6917)
Subjects with DED [2]; [7]
  Diary Burning Change from Baseline, ANCOVA LS Mean (SE): −0.313 (0.0640)
  Diary Ocular Discomfort Change from Baseline, ANCOVA LS Mean (SE): −0.223 (0.0656)
  Diary Burning Change from Baseline, ANCOVA LS Mean Difference (SE), BRM421 OS − Placebo: −0.048 (0.0884)
  Diary Burning Change from Baseline, Two-Sample t-test Sample Mean Difference (SE), BRM421 OS − Placebo: −0.048 (0.0939)
  Diary Ocular Discomfort Change from Baseline, ANCOVA LS Mean Difference (SE), BRM421 OS − Placebo: −0.049 (0.0906)
  Diary Ocular Discomfort Change from Baseline, Two-Sample t-test Sample Mean Difference (SE), BRM421 OS − Placebo: −0.058 (0.0936)
Subjects with DED [2]; Day 8 to 15, Morning
  Diary Burning Change from Baseline, Mean (SD): −0.332 (0.7199)
  Diary Ocular Discomfort Change from Baseline, Mean (SD): −0.248 (0.6696)
Subjects with DED [2]; Visit 3, both pre-CAE and post-CAE evaluations as baselines
  ODS dryness versus placebo (FIG. 3B): no significant difference
Subjects with DED [2]; Visit 3, post-CAE evaluations
  ODS burning and ODS stinging versus placebo (FIG. 3B): significant effects
Subjects with DED [3]; patients with cataract and surgery
  Corneal damage repair compared to placebo (FIG. 5D): slight improvements
Subjects with DED [3]; patients with cataract but without surgery
  Corneal damage repair compared to placebo (FIG. 5C): significant improvements; also recorded: more significant
Subjects with DED [3]; subjects with cataract
  Corneal damage repair compared to placebo (FIG. 5B): significant improvements
Subjects with DED [3]; subjects without cataract
  Corneal damage repair (FIG. 5A): did not show significant improvements
